Results taken from PubChem BioAssay AID488966 (Southern Research Specialized Biocontainment Screening …, 2010).

tested on: E. coli UTI89 K1F phage lysis, alamar blue, 2 h; assay: inhibition of K1F phage lysis, E. coli UTI89, bacterial capsule biogenesis inhibitors, alamar blue (AID 488966);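 also: capsule biogenesis inhibitors block K1F phage lysis so surviving cells raise fluorescence; higher fluorescence means more inhibition of phage lysis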

SMILES | IC50 [µM]
CCN(CC)CCCNc1nc2ccccc2c2[nH]c3ccc(OC)cc3c12 | 86.6
O=C(NCc1cc([N+](=O)[O-])ccc1O)c1cccnc1Sc1ccccc1 | 128
CC1(C(=O)O)CCC(C(=O)Nc2ccc3ccccc3c2)C1(C)C (stereo not given) | 178
N=c1n(CCN2CCCC2)c2ccccc2n1CC(O)c1ccc(Cl)c(Cl)c1 (stereo not given) | 140
Cc1ccccc1NC(=NCCCN1CC1)Nc1ccccc1C | 286
CCC1=NN2C(=N)/C(=C\c3ccc(SCc4ccco4)o3)C(=O)N=C2S1 | 68.7
N=C(N)SCCc1cccc(CCSC(=N)N)c1 | 114
Cc1cccc(C)c1NC(=O)C[N+](C)(C)CC(O)COc1cccc2ccccc12 (stereo not given) | 91
NC(N)=N/N=C/c1ccc(OCc2ccccc2)cc1 | 60.8
Cc1ccc(C2c3c(oc4cc(C)c(C)cc4c3=O)C(=O)N2CCCN2CCOCC2)cc1 (stereo not given) | 228
CCN(CCCl)c1cc(CN(C)C)cc(NC(=O)c2ccc(C(=O)Nc3cc(CN(C)C)cc(N(CC)CCCl)c3)cc2)c1 | 118
COc1ccc2nc(NC(=O)c3ccc(Br)s3)sc2c1 | 59.7
CCCOc1ccc(C(=O)C(CCC(CNCC)C(=O)c2ccc(OCCC)cc2)CNCC)cc1 (stereo not given) | 132
C=CCOc1ccc(C2c3c(oc4ccccc4c3=O)C(=O)N2CCCN2CCOCC2)cc1 (stereo not given) | 200
Cc1cc(C)c(NC(=O)C[N+](C)(C)CC(O)COc2cccc3ccccc23)c(C)c1 (stereo not given) | 82.2
O=C1c2c(O)ccc(O)c2C(=O)c2c(NCCNCCO)ccc(NCCNCCO)c21 | 211
O=C1C2(Cl)C3(Cl)C4(Cl)C(Cl)(Cl)C5(Cl)C3(Cl)C1(Cl)C5(Cl)C24Cl (stereo not given) | 74.8
COc1cc(/C=N/N=C(N)N)ccc1OCc1ccccc1Cl | 56.4
CCN(CC)c1ccc2c(-c3ccc(S(=O)(=O)O)cc3S(=O)(=O)[O-])c3ccc(=[N+](CC)CC)cc-3oc2c1 | 30.6
O=C(NCc1cc([N+](=O)[O-])ccc1O)c1cccnc1Sc1ccccc1Cl | 175
N=C(N)c1ccc(/C=C/c2ccc(C(=N)N)cc2O)cc1 | 11.1
O=C(ONc1ccc(N=NC(=O)c2ccccc2O)cc1)c1ccccc1 | 72.7
O=C(Nc1cccc(C2=NCCN2)c1)Nc1cccc(C2=NCCN2)c1 | 251
O=C(COc1ccc(Cl)cc1Cl)Nc1ccc(C(=O)Nc2ccccc2C(=O)O)cc1 | 74.6
O=C(Nc1ccncc1)c1ccc2ncsc2c1 | 123
